Tests used:
Assay in all cases: biochemical
Parameters in all cases: Thermo Fisher SelectScreen kinase panel: Z'-LYTE and Adapta activity, LanthaScreen binding
BLK = BLK (Homo sapiens, UniProt P51451)
Procedure, shortened: (§1)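 GNE684 profiled at 10 µM across 221 kinases with Z'-LYTE and Adapta activity and LanthaScreen binding formats. Also screened at 10 µM against 468 kinases in KINOMEscan scanMAX binding assay.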

BMX = BMX (Homo sapiens, UniProt P51813)
Procedure, shortened: as §1

BRAF = BRAF (Homo sapiens, UniProt P15056)
Procedure, shortened: as §1

DMPK = DMPK (Homo sapiens, UniProt Q09013)
DMPK, sequence (Q09013 whole entry): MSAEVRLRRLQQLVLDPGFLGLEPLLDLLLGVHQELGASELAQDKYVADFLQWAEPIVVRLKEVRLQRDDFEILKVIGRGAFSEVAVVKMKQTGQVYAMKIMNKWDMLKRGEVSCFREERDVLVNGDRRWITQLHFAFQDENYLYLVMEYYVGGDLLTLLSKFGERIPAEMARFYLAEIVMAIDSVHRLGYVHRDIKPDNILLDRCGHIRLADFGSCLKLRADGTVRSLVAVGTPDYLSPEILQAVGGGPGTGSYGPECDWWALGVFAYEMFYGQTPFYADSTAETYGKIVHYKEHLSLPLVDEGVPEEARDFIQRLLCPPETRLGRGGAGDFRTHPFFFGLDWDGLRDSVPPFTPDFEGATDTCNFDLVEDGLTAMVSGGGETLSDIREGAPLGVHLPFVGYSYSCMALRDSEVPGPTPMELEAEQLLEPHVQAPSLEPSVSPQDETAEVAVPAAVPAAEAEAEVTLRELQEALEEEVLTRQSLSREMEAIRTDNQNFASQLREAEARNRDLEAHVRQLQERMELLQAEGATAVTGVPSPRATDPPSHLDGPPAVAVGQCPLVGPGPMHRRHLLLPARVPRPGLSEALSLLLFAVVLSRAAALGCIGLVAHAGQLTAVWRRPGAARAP
Procedure, shortened: as §1

ERK2 = biological target: T1, ERK2 (Homo sapiens, UniProt P28482)
T1 construct: gene MAPK1
Procedure, shortened: as §1

FES = FES (Homo sapiens, UniProt P07332)
FES, sequence (P07332 whole entry): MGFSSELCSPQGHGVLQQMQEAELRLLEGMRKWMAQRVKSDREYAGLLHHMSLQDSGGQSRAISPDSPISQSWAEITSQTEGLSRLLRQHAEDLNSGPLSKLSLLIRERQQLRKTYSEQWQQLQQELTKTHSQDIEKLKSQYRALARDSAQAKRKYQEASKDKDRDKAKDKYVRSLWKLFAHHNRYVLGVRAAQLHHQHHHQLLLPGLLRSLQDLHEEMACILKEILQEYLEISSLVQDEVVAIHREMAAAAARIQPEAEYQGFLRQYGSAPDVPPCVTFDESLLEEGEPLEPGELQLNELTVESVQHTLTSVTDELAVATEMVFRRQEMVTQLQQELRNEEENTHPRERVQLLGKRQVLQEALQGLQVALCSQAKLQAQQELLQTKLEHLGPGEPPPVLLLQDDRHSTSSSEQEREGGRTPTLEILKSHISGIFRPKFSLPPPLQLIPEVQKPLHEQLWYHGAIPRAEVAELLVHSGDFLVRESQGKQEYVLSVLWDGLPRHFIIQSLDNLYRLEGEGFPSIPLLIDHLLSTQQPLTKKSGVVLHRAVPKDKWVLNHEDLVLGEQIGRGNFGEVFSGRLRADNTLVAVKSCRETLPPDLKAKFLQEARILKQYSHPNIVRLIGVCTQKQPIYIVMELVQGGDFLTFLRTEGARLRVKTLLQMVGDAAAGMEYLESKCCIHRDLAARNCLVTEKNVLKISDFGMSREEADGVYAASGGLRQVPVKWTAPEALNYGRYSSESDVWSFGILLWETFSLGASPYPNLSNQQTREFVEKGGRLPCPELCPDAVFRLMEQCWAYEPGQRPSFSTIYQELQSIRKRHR
Procedure, shortened: as §1

FGFR4 = FGFR4 (Homo sapiens, UniProt P22455)
Procedure, shortened: as §1

GRK3 = GRK3 (Homo sapiens, UniProt P35626)
GRK3, sequence (P35626 whole entry): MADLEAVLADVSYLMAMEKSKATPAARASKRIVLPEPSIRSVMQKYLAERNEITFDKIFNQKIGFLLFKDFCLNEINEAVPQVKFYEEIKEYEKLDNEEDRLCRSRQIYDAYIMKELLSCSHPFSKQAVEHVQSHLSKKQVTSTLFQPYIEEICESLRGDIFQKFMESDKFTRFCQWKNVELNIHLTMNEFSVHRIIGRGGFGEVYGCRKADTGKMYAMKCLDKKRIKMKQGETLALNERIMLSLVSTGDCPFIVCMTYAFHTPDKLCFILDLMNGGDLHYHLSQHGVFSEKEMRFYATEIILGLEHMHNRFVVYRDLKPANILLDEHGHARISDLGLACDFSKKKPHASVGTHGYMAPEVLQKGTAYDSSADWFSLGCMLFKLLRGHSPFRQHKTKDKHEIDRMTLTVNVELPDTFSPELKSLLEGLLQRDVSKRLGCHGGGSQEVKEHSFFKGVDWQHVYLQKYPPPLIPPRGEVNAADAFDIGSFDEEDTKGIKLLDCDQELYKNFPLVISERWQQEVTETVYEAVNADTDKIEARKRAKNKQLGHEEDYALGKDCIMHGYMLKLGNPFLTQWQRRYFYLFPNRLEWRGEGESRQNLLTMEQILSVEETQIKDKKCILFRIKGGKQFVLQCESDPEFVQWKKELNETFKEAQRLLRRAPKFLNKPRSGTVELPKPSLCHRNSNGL
Procedure, shortened: as §1

GRK5 = GRK5 (Homo sapiens, UniProt P34947)
Procedure, shortened: as §1

IGF1R = IGF1R (Homo sapiens, UniProt P08069)
IGF1R, sequence (P08069 whole entry): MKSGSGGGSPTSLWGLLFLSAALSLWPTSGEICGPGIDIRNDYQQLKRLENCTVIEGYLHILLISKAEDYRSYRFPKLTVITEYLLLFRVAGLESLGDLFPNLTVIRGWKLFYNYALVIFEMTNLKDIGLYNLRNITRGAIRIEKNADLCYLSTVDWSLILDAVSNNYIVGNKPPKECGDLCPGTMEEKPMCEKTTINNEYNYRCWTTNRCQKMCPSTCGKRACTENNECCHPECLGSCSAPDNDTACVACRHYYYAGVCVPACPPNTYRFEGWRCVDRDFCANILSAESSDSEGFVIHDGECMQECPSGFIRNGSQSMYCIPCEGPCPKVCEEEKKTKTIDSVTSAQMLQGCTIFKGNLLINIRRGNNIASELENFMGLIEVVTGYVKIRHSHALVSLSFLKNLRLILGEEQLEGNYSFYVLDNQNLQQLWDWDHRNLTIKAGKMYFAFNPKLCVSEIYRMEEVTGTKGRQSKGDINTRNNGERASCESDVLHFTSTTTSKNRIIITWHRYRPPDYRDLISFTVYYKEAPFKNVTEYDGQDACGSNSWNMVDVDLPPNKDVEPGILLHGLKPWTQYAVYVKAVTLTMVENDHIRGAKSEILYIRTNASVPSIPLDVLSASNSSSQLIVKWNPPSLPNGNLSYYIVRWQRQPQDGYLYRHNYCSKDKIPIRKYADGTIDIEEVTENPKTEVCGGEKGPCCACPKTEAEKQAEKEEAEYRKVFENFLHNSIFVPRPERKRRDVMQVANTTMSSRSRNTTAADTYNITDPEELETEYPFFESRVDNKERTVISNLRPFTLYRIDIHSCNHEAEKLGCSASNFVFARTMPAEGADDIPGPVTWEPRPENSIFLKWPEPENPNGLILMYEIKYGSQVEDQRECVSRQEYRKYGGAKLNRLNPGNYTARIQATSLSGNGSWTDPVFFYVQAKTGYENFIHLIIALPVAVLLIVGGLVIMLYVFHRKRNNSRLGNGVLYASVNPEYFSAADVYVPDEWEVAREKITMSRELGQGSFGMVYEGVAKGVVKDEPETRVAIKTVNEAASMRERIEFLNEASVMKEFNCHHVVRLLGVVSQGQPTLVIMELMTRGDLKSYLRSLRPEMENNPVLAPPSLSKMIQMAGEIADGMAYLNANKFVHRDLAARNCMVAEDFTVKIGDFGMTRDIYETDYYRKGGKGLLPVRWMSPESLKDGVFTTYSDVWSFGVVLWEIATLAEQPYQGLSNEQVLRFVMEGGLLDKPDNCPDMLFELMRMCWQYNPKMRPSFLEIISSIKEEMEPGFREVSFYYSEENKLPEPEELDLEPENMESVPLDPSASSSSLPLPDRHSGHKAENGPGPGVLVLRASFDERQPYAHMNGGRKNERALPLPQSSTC
Procedure, shortened: as §1

LCK = LCK (Homo sapiens, UniProt P06239)
Procedure, shortened: as §1

MAPKAPK2 = MAPKAPK2 (Homo sapiens, UniProt P49137)
Procedure, shortened: as §1

MEK1 = biological target: T2, MEK1 (Homo sapiens, UniProt Q02750)
T2 construct: gene MAP2K1
T2 sequence (Q02750 whole entry): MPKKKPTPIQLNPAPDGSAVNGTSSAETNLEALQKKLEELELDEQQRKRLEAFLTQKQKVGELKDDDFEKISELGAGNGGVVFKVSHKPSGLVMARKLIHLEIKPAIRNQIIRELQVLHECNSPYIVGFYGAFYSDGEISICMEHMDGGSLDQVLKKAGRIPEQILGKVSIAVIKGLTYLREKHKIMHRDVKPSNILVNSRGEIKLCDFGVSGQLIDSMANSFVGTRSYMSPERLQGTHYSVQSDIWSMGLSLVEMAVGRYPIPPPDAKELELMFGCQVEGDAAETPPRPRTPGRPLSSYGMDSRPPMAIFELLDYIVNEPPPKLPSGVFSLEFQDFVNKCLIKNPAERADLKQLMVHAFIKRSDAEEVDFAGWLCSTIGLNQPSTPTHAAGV
Procedure, shortened: as §1

MET = MET (Homo sapiens, UniProt P08581)
Procedure, shortened: as §1

PI3K-A = biological target: T3, PI3K-A (Homo sapiens, UniProt P42336)
T3 construct: gene PIK3CA; p110alpha/p85alpha
Procedure, shortened: as §1

PIM1 = PIM1 (Homo sapiens, UniProt P11309)
Procedure, shortened: as §1

PhK_gamma1 = biological target: T4, PhK_gamma1 (Homo sapiens, UniProt Q16816)
T4 construct: gene PHKG1
Procedure, shortened: as §1

RET = RET (Homo sapiens, UniProt P07949)
Procedure, shortened: as §1

SGK1 = SGK1 (Homo sapiens, UniProt O00141)
Procedure, shortened: as §1

TYK2 = TYK2 (Homo sapiens, UniProt P29597)
Procedure, shortened: as §1

ZIPK = biological target: T5, ZIPK (Homo sapiens, UniProt O43293)
T5 construct: gene DAPK3
Procedure, shortened: as §1

p38-beta = biological target: T6, p38-beta (Homo sapiens, UniProt Q15759)
T6 construct: gene MAPK11
T6 sequence (Q15759 whole entry): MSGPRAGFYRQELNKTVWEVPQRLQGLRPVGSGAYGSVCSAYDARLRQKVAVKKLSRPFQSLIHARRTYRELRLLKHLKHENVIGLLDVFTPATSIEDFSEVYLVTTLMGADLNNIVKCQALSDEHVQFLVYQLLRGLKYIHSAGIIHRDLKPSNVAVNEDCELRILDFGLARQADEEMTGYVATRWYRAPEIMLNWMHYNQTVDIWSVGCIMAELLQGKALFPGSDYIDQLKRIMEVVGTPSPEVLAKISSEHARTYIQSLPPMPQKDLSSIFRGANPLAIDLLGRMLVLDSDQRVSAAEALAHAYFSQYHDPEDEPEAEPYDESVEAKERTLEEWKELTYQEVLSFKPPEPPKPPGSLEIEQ
Procedure, shortened: as §1

p38-delta = biological target: T7, p38-delta (Homo sapiens, UniProt O15264)
T7 construct: gene MAPK13
Procedure, shortened: as §1

BMX, sequence (P51813 whole entry): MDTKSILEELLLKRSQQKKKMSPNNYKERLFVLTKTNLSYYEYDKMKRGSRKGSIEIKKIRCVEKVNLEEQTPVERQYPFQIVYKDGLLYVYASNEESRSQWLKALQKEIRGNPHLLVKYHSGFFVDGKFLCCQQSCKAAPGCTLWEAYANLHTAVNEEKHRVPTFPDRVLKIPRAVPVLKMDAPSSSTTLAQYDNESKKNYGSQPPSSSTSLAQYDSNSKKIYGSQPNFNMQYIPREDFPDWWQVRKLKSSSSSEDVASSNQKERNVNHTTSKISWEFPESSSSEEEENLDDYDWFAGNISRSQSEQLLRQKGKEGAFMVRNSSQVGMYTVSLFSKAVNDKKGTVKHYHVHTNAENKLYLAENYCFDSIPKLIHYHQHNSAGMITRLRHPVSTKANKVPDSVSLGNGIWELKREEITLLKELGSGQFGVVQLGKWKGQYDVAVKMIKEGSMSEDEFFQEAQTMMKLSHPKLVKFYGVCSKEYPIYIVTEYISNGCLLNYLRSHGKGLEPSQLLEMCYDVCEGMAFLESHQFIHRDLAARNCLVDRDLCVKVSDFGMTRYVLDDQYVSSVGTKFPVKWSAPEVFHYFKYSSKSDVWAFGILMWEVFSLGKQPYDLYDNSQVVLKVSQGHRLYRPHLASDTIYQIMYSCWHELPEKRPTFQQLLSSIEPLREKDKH

Work on `COc1cc2c(cn1)N(C)C(=O)[C@@H](NC(=O)c1nc3n(n1)[C@H](c1ccccc1)CC3)CC2` [GNE684, (S)-N-((S)-7-methoxy-1-methyl-2-oxo-2,3,4,5-tetrahydro-1H-pyrido[3,4-b]azepin-3-yl)-5-phenyl-6,7-dihydro-5H-pyrrolo[1,2-b][1,2,4]triazole-2-carboxamide] yielded an inhibition at 10 µM (BLK) of 6.5%, an inhibition at 10 µM (BMX) of 4.5% and an inhibition at 10 µM (BRAF) of 6.5%. It also gave an inhibition at 10 µM (DMPK) of -3%, an inhibition at 10 µM (ERK2) of 1% and an inhibition at 10 µM (FES) of 3%. It also gave an inhibition at 10 µM (FGFR4) of -6.5%, an inhibition at 10 µM (GRK3) of 2.5% and an inhibition at 10 µM (GRK5) of 4.5%. For the same compound, the inhibition at 10 µM (IGF1R) was 5%, the inhibition at 10 µM (LCK) was 5% and the inhibition at 10 µM (MAPKAPK2) was 4.5%. For the same compound, the inhibition at 10 µM (MEK1) was -7.5%, the inhibition at 10 µM (MET) was -2% and the inhibition at 10 µM (PI3K-A) was 16%. The inhibition at 10 µM (PIM1) was 1%, the inhibition at 10 µM (PhK_gamma1) was 0% and the inhibition at 10 µM (RET) was 4%. The inhibition at 10 µM (SGK1) was -1%, the inhibition at 10 µM (TYK2) was 3.5% and the inhibition at 10 µM (ZIPK) was 1%. It also gave an inhibition at 10 µM (p38-beta) of 4.5% and an inhibition at 10 µM (p38-delta) of 3.5%.

— PMC7206119, “RIP1 inhibition blocks inflammatory diseases but not tumor growth or metastases” (Cell Death and Differentiation, 2019)
